The target in this experiment is Signal transducer and activator of transcription 3 (Homo sapiens, UniProt P40763). Kind of experiment: Inhibition of STAT3 tyrosine phosphorylation in human A549 cells by sandwich ELISA method.

This note sets out measurements from BindingDB's records for doi:10.1021/acs.jmedchem.5b00659 (Taipei Medical University, 2015).

Sequence of Signal transducer and activator of transcription 3 (P40763 whole entry): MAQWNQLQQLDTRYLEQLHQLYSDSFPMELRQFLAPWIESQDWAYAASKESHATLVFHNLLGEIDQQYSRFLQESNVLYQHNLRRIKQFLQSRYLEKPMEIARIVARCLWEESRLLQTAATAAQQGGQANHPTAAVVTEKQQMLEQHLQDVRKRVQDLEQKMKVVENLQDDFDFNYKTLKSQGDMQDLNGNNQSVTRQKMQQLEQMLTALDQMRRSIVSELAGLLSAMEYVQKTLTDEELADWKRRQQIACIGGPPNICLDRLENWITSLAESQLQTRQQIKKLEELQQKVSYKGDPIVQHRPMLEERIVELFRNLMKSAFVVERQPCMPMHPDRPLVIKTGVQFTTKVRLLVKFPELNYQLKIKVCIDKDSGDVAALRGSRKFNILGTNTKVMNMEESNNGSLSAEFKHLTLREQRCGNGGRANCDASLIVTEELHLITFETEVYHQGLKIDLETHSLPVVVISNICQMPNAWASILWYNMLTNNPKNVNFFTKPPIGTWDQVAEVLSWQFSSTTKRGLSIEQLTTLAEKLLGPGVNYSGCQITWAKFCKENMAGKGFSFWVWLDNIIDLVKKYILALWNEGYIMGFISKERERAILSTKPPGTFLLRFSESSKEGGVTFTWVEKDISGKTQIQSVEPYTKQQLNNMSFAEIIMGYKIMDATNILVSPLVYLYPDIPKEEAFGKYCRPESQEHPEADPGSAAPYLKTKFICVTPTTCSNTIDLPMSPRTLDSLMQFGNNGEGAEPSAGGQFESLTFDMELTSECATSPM

For orientation: IC50 means the concentration that inhibits the measured activity by half. Lower therefore signals greater potency. Regarding `COc1ccc(S(=O)(=O)Nc2ccccc2-c2ccc(F)c(F)c2)cc1`, the IC50 was 2750 nM.
